Experimental data as given in ChEMBL document CHEMBL4118128, “Discovery of chiral dihydropyridopyrimidinones as potent, selective and orally bioavailable inhibitors of AKT” (Bioorg Med Chem Lett, 2018).
≈ marks a conversion by molar mass, not a printed value. Calls of active or inactive are those of the source. No cut-off for these calls is given here.

How the values were obtained:
[1] = target: Ribosomal protein S6 kinase beta-1 (Homo sapiens, UniProt P23443); experiment: Inhibition of human p70S6K measured at apparent ATP Km level
Ribosomal protein S6 kinase beta-1, sequence (P23443 whole entry): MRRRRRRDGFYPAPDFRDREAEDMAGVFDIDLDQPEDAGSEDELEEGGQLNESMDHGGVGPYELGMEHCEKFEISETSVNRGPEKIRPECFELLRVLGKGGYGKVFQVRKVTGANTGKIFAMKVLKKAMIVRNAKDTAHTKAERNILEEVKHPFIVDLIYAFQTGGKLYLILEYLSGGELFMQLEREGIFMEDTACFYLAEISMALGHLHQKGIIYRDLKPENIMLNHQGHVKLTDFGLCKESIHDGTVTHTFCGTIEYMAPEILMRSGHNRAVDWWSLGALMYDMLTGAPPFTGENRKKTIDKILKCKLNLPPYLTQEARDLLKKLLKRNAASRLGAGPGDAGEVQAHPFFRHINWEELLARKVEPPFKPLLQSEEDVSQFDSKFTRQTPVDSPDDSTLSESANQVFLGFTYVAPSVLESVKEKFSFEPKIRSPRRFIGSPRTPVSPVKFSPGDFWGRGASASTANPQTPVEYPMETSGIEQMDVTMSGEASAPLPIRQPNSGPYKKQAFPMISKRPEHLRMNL

U-87 MG [2] = experiment: Antitumor activity against human U87MG cells xenografted in rat assessed as inhibition of tumor growth at 25 mg/kg, po bid for 4 weeks; type: functional, organism-based; conditions: U-87MG ATCC
[3] = Inhibition of human PKA measured at apparent ATP Km level
[4] = AUC (0 to 24 hrs) in P-gp and BCRP knockout mouse at 2.5 mg/kg, po by LC-MS/MS method; type: ADME, organism-based; parameters: time < 24 hr, dose 2.5 mg/kg, route oral; conditions: in vivo
[5] = AUC (0 to 24 hrs) in wild type mouse at 2.5 mg/kg, po by LC-MS/MS method; type: ADME, organism-based; parameters: time < 24 hr, dose 2.5 mg/kg, route oral; conditions: in vivo
Homo sapiens = species on record: Homo sapiens; experiment: Selectivity index, ratio of IC50 for human recombinant ROCK2 (11 to 552 residues) expressed in insect cells to IC50 for human recombinant AKT1 expressed in insect cells
Rattus norvegicus [6] = experiment: Intrinsic unbound clearance in Sprague-Dawley rat at 10 mg/kg, iv by LC-MS/MS method; type: ADME, organism-based; conditions: in vivo
[7] = Cmax in wild type mouse at 2.5 mg/kg, po by LC-MS/MS method; type: ADME, organism-based; parameters: dose 2.5 mg/kg, route oral; conditions: in vivo
[8] = target: Ribosomal protein S6 kinase alpha-1 (Homo sapiens, UniProt Q15418); experiment: Inhibition of human RSK1 measured at apparent ATP Km level
Ribosomal protein S6 kinase alpha-1, sequence (Q15418 whole entry): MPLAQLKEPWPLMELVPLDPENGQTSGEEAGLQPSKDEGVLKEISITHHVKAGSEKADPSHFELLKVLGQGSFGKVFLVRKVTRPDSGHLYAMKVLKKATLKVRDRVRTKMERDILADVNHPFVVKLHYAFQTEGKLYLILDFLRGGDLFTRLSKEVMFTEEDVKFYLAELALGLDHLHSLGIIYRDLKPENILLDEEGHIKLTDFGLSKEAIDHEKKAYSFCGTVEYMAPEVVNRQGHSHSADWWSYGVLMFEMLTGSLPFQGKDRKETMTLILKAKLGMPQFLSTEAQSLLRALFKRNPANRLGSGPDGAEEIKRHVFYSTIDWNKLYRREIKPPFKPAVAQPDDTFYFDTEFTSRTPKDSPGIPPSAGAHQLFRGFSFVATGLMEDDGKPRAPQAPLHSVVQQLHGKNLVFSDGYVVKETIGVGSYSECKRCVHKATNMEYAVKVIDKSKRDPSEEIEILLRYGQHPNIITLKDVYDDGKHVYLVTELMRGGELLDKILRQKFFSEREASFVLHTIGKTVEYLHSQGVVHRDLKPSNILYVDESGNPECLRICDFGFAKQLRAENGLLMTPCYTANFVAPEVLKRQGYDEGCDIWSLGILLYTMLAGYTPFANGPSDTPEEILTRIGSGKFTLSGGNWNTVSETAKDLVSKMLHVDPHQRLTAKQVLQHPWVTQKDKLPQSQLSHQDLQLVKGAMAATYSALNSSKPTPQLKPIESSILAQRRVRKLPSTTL

[9] = AUC (0 to 24 hrs) in Sprague-Dawley rat at 5 mg/kg, po by LC-MS/MS method; type: ADME, organism-based; parameters: dose 5 mg/kg, time < 24 hr, route oral; conditions: in vivo
U-87 MG [10] = experiment: Antitumor activity against human U87MG cells xenografted in rat assessed as inhibition of tumor growth at 25 to 50 mg/kg, po qd for 4 weeks; type: functional, organism-based; conditions: U-87MG ATCC
[11] = Volume of distribution at steady state in Sprague-Dawley rat at 10 mg/kg, iv or 5 mg/kg, po by LC-MS/MS method; type: ADME, organism-based; conditions: in vivo, read-out: Vdss
Rattus norvegicus [12] = experiment: Toxicity in human U87MG cells xenografted rat assessed as induction of body weight loss at 25 to 50 mg/kg, po qd for 4 weeks; type: organism-based; conditions: in vivo, 672 h
[13] = Oral bioavailability in Sprague-Dawley rat at 5 mg/kg by LC-MS/MS method; type: ADME, organism-based; conditions: in vivo
[14] = Half life in Sprague-Dawley rat at 10 mg/kg, iv by LC-MS/MS method; type: ADME, organism-based; conditions: in vivo
[15] = Cmax in P-gp and BCRP knockout mouse at 2.5 mg/kg, po by LC-MS/MS method; type: ADME, organism-based; parameters: dose 2.5 mg/kg, route oral; conditions: in vivo
[16] = Aqueous solubility in pH 7.4 buffer; type: physicochemical
[17] = target: Rho-associated protein kinase 2 (Homo sapiens, UniProt O75116); experiment: Inhibition of histidine-tagged human recombinant ROCK2 (11 to 552 residues) expressed in insect cells using RFARKGSLRQKNV substrate incubated for 60 mins measured at apparent ATP Km level by kinase ADP-FP assay
Rho-associated protein kinase 2, sequence (O75116 whole entry, the tested form may be a part): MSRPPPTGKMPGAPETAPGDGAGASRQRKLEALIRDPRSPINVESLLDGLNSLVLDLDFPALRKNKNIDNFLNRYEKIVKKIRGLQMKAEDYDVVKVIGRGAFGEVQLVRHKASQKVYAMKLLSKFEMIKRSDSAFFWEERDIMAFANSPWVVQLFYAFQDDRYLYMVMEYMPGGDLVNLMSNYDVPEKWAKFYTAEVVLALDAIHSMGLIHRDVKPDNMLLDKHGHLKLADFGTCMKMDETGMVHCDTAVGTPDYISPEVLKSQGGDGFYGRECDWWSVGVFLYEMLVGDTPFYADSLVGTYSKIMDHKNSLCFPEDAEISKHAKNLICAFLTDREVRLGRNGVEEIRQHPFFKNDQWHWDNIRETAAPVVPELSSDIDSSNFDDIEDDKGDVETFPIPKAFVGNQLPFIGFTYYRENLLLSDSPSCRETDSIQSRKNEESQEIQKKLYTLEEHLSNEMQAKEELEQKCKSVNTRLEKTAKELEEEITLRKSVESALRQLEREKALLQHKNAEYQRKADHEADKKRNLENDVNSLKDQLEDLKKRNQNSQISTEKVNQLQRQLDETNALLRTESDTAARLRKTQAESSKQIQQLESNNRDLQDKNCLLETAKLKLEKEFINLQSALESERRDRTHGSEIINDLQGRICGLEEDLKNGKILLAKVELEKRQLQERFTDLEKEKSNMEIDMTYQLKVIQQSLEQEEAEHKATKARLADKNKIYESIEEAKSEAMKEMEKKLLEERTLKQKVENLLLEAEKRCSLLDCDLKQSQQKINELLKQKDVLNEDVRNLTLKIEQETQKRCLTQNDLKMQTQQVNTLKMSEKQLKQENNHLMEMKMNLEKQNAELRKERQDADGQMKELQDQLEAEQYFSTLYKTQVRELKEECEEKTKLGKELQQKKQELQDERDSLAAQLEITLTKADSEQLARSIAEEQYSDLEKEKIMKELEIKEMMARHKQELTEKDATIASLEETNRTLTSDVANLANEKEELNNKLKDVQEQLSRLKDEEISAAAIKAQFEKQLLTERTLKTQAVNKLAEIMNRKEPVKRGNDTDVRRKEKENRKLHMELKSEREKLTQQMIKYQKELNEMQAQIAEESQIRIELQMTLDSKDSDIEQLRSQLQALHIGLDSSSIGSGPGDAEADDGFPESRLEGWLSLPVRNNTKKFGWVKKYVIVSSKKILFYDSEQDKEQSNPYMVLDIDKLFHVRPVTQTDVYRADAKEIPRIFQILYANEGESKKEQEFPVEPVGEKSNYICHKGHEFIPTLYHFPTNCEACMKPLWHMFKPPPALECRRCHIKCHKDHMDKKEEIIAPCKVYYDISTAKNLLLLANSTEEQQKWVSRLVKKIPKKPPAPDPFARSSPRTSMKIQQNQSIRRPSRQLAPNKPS

[18] = target: Protein kinase C beta type (Homo sapiens, UniProt P05771); experiment: Inhibition of human PKCbeta2 measured at apparent ATP Km level
Protein kinase C beta type, sequence (P05771 whole entry): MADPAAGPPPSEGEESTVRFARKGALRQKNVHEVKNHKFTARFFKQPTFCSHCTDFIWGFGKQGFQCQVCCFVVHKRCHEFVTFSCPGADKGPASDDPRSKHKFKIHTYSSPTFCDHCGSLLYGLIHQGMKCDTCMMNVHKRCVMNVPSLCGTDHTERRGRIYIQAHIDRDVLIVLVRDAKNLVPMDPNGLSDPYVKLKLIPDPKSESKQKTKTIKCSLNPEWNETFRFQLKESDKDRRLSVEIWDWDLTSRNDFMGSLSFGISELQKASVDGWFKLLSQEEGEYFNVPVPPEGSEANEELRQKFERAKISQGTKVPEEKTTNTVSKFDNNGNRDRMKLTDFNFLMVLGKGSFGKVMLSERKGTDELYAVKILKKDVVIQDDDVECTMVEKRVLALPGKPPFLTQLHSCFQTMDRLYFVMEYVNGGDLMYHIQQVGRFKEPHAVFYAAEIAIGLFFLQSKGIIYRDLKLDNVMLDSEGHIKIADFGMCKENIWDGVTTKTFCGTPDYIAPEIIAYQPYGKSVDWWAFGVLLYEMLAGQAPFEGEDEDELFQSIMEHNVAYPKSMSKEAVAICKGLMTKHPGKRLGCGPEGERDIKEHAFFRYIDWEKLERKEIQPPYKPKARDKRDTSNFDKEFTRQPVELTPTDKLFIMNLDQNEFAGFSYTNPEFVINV

[19] = target: T1, RAC-alpha serine/threonine-protein kinase (Homo sapiens, UniProt P31749); experiment: Inhibition of AKT1 in human U87MG cells assessed as reduction in GSK3beta Ser9 phosphorylation incubated for 1 hr by alpha screen Surefire assay; type: cell-based
T1 sequence (P31749 whole entry): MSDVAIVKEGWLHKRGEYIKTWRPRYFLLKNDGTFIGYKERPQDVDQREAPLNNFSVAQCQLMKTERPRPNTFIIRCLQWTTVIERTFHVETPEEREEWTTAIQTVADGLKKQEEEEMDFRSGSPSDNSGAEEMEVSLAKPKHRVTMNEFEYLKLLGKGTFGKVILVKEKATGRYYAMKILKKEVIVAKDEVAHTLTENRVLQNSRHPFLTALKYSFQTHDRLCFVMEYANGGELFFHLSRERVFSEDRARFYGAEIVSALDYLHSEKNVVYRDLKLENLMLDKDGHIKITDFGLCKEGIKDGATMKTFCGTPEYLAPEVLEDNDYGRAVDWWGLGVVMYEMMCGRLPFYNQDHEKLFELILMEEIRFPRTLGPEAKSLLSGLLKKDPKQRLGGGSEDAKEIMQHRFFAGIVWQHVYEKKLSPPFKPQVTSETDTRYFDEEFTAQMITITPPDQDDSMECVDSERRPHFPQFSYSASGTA

[20] = Clearance in Sprague-Dawley rat at 10 mg/kg, iv by LC-MS/MS method; type: ADME, organism-based; conditions: in vivo
Rattus norvegicus [21] = experiment: Toxicity in human U87MG cells xenografted rat assessed as induction of body weight loss at 25 mg/kg, po bid for 4 weeks; type: organism-based; conditions: in vivo, 672 h
[22] = target: T1, RAC-alpha serine/threonine-protein kinase; experiment: Inhibition of human recombinant AKT1 expressed in insect cells incubated for 60 mins measured at apparent ATP Km level by kinase ADP-FP assay
[23] = Lipophilicity, log P of the compound; type: physicochemical; conditions: octanol/water
[24] = target: Voltage-gated inwardly rectifying potassium channel KCNH2 (Homo sapiens, UniProt Q12809); experiment: Inhibition of human ERG
Voltage-gated inwardly rectifying potassium channel KCNH2, sequence (Q12809 whole entry): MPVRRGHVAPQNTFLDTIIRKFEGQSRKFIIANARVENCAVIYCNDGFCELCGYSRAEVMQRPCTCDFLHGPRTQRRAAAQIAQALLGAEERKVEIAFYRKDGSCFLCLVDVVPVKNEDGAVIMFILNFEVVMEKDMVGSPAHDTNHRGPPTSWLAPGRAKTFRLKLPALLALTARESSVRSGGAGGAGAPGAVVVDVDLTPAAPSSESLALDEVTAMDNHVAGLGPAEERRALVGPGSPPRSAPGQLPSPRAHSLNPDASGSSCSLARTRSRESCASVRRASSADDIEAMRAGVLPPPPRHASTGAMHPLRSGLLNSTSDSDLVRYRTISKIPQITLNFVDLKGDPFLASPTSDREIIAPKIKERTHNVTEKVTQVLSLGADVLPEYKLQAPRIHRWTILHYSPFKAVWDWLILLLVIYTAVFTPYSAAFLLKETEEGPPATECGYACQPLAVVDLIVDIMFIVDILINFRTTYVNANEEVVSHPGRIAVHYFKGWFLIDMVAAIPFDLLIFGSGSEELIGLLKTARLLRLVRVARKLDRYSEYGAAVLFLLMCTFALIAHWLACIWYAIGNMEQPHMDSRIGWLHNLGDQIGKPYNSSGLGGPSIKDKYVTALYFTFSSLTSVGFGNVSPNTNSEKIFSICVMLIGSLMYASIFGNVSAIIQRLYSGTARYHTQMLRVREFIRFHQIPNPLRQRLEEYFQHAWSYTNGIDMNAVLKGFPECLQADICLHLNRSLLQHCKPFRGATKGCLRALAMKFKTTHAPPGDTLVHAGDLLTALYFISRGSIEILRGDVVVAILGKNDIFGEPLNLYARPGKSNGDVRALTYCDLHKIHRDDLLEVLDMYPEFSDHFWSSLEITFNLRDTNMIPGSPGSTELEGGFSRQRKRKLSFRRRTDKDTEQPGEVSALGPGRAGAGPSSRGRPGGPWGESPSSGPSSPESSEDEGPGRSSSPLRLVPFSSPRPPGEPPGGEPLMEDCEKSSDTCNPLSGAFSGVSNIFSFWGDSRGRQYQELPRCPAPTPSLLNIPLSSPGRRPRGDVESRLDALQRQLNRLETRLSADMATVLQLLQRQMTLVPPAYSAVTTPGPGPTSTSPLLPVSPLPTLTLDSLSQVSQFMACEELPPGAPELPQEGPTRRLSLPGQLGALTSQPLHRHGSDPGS

Mus musculus = experiment: Ratio of AUC (0 to 24 hrs) in P-gp and BCRP knockout mouse at 2.5 mg/kg, po to AUC (0 to 24 hrs) in wild type mouse at 2.5 mg/kg, po; type: ADME, organism-based; conditions: in vivo

Compound | IC50 [1] [nM] | IC50 [3] [nM] | AUC(0-t) at 24 h [4] [ng·h/mL] | AUC(0-t) at 24 h [5] [ng·h/mL] | Ratio IC50 (Homo sapiens) | CL free (Rattus norvegicus [6]) [mL/min/kg] | Cmax [7] [ng/mL] | IC50 [8] [nM] | AUC(0-t) at 24 h [9] [ng·h/mL] | Vd [11] [L/kg] | bioavailability [13] [%] | half-life [14] [h] | solubility [16] [µg/mL] | IC50 [17] [nM] | IC50 [18] [nM] | IC50 [19] [nM] | clearance [20] [mL/min/kg] | IC50 [22] [nM] | logP [23] | INH [24] [µM] | other results
Cn1cc(-c2ccc(F)c(C(F)(F)F)c2)nc1C1CCN(c2ncnc3[nH]ncc23)CC1 [LY-2584702] | 4 | – | – | – | – | – | – | – | – | – | – | – | – | – | – | – | – | – | – | – | –
C[C@@H]1CC(=O)Nc2ncnc(N3CCC(c4nc(CCC(F)(F)F)cn4CCN4CCCC4)CC3)c21 | 399 | 84 | 359 | 290 | > 1000 | 43 | 76 | 568 | 638 | 11.6 | 55 | 2.3 | 990 (≈ 1960 µM) | > 20000 | 3980 | 92 | 74 | 5 | 2.39 | 18.5 | TGI (U-87 MG [2]): Active; TGI (U-87 MG [10]): Dose-dependent effect; Activity (Rattus norvegicus [12]): Non-Toxic; Cmax [15]: 109 ng/mL; Activity (Rattus norvegicus [21]): Non-Toxic
C[C@@H]1CC(=O)Nc2ncnc(N3CCC(c4nc(-c5ccc(F)c(C(F)(F)F)c5)cn4CCN4CCCC4)CC3)c21 | 35 | 653 | – | – | > 1000 | – | – | 20 | – | – | – | – | 35 (≈ 61.2 µM) | > 20000 | 36 | 39 | – | 3 | 4.84 | 1.74 | –
C[C@@H]1CC(=O)Nc2ncnc(N3CCC(c4nc(C(F)(F)F)cn4CCN4CCCC4)CC3)c21 | 876 | 124 | – | – | > 1000 | 66 | – | 272 | 24100 | 0.65 | 64 | 3 | 1860 (≈ 3900 µM) | > 20000 | 16300 | 2460 | 2.18 | 11 | 1.66 | > 100 | –
C[C@@H]1CC(=O)Nc2ncnc(N3CCC(c4nc(C5CCOCC5)cn4CCN4CCCC4)CC3)c21 | 1900 | 412 | 501 | 108 | > 1000 | 85 | 33 | 699 | 173 | 13.8 | 14 | 8.6 | > 2000 | > 20000 | 20000 | 230 | 64 | 4 | 0.95 | > 100 | Ratio (Mus musculus): 5; Cmax [15]: 189 ng/mL
